Measurements: US20170312200A1, “AN AGENT FOR IMPROVING MITOCHONDRIAL FUNCTION” (SHOWA DENKO K.K., priority 2014, published 2017)

Key:
Format in all cases: cell-based
[1] = test system: human skin fibroblasts NB1-RGB cells; experiment: Effect on promoting elastin production (Elastin Assay Kit); details: aged cells, 48 hours, normal cell = 1.00
Description: It is known that elastin is a fiber-like protein, which has a main function of crosslinking collagen, is present in the dermis of the skin, blood vessels, ligaments, and the like, and provides elasticity to the skin. The effect of a hydroxycitric acid derivative on elastin production was examined by the following method. The aged cells and normal, unprocessed cells which were produced in Example 1 were prepared at a seeding density of 4,000 cells/cm^2 and cultured for 24 hours in the DMEM medium containing 10% fetal bovine serum. The hydroxycitric acid derivatives according to the present invention which were dissolved in 50% ethanol to the final concentration of 0 μM (for a control), 0.01 μM, and 0.1 μM were added to the DMEM medium containing 10% fetal bovine serum, and culturing was performed for 48 hours. After that, cells were collected, elastin was extracted using Elastin Assay Kit manufactured by Biocolor Ltd., and an absorbance of the extracted solution was measured at a wavelength of 513 nm.

[2] = test system: human skin fibroblasts NB1-RGB cells; experiment: Effect on mitochondrial function improvement (JC-1 red/green fluorescence, mitochondrial membrane potential); details: aged cells (600 μM hydrogen peroxide), specimen 10 μM, 48 hours; relative value with normal cells as 1
Description: The effect on mitochondrial function improvement in human skin fibroblasts NB1-RGB cells was measured under the following conditions using a mitochondrial membrane potential as an index. By performing an operation for 4 days in which confluent NB1-RGB cells were cultured for one hour in a DMEM medium containing 10% fetal bovine serum and 600 μM hydrogen peroxide solution, cells induced of artificial aging by oxidation were prepared as aged cells. These aged cells and normal, unprocessed cells were prepared at a seeding density of 4,000 cells/cm^2 and cultured for 24 hours in the DMEM medium containing 10% fetal bovine serum. […] After changing a medium to new assay solution supplied in Assay Kit, a fluorescence intensity of the living cells was measured at an excitation wavelength of 520 to 570 nm and a fluorescence wavelength of 570 to 610 nm, and the dead cells at an excitation wavelength of 485 nm and a fluorescence wavelength of 535 nm. In order to evaluate the state of mitochondrial membrane potential, red fluorescence intensity and green fluorescence intensity of a cell group to be measured were measured, and values of red fluorescence intensity divided by green fluorescence intensity were calculated, and their relative values, with a measured value of the normal cells as 1, are shown in Table 3. […]

[3] = test system: human skin fibroblasts NB1-RGB cells; experiment: Measurement of cells in which apoptosis had been caused (JC-1 green fluorescence, mitochondrial membrane potential as index); details: aged cells (600 μM hydrogen peroxide), specimen 10 μM, 48 hours; relative value with normal cells as 1
Description: The effect on mitochondrial function improvement in human skin fibroblasts NB1-RGB cells was measured under the following conditions using a mitochondrial membrane potential as an index. By performing an operation for 4 days in which confluent NB1-RGB cells were cultured for one hour in a DMEM medium containing 10% fetal bovine serum and 600 μM hydrogen peroxide solution, cells induced of artificial aging by oxidation were prepared as aged cells. These aged cells and normal, unprocessed cells were prepared at a seeding density of 4,000 cells/cm^2 and cultured for 24 hours in the DMEM medium containing 10% fetal bovine serum. […] After changing a medium to new assay solution supplied in Assay Kit, a fluorescence intensity of the living cells was measured at an excitation wavelength of 520 to 570 nm and a fluorescence wavelength of 570 to 610 nm, and the dead cells at an excitation wavelength of 485 nm and a fluorescence wavelength of 535 nm. In order to obtain a ratio of dead cells in which apoptosis had been caused, only the green fluorescence intensity of a cell group to be measured was measured, and relative values, with a measured value of the normal cells as 1, are shown in Table 2.

Compound	Relative absorbance (513 nm) (elastin production) ([1]; specimen 0.01 μM)	Relative absorbance (513 nm) (elastin production) ([1]; specimen 0.1 μM)	Relative fluorescence intensity (red fluorescence intensity divided by green fluorescence intensity; effect on mitochondrial function improvement) [2]	Relative fluorescence intensity (green fluorescence of dead cells in which apoptosis had been caused) [3]
CCCCCCCCCCCCCC(=O)OC(CC(=O)O)(C(=O)O)C(O)C(=O)O (centres unmarked) [Hydroxycitric acid-2-myristate]	0.93	0.94	0.66	1.13
Hydroxycitric acid-2-palmitate	1.11	1.06	0.72	1.04
